# Tested on: hedgehog signaling pathway
# Test: Gli-Luc Reporter Assay for Hh Pathway Inhibition (TMHh-12 cells, pTA-8×Gli-Luc reporter)
# Type: cell-based, Mouse
# Conditions: Mus musculus, TMHh12, Ag1.5 1 nM; read-out: Hedgehog Inhibition IC50 (nM) (Ag1.5 1 nM)
# Procedure, shortened: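 Mouse TM3 cells stably carrying an 8×Gli-firefly luciferase reporter, in 2% FBS medium; pathway activated with recombinant mouse Shh (8 μg/mL) or Smo agonist, compounds added at varying concentrations for 48 h. Luminescence read; IC50 at 50% signal reduction. Toxicity checked in TM3 cells (CellTiter-Glo) or constitutive-luciferase TM3-Luc cells.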
row,IC50 [nM],Structure (SMILES)
1,1030,Cc1ccc(Nc2cccc3c2CCN(S(C)(=O)=O)C3)cc1-c1ccc(C(C)(C)C)cc1 [Compound 113]
2,0.3,Cc1ccc(Nc2cccc3c2CCN(S(C)(=O)=O)C3)cc1-c1cc2ccccc2cn1 [Compound 229]
3,0.7,O=C1CCC(N2CCc3c(cccc3Nc3ccc(Cl)c(-c4ncc(-c5ccccc5)[nH]4)c3)C2)CC1 [Compound 33]
4,90,Cc1ccc(Nc2cccc3c2CCN(S(C)(=O)=O)C3)cc1-c1ccc(C(F)(F)F)cc1 [Compound 136]
5,1.6,NS(=O)(=O)N1CCc2c(cccc2Nc2ccc(Cl)c(-c3ncc(-c4ccccc4)[nH]3)c2)C1 [Compound 13]
6,3,CC(C)(C)OC(=O)N1CCc2c(cccc2Nc2ccc(Cl)c(-c3ncc(-c4ccccc4)[nH]3)c2)C1 [Compound 45]
7,22.7,Clc1ccc(Nc2cccc3c2CCNC3)cc1-c1ncc(-c2ccccc2)[nH]1 [Compound 57]
8,0.45,CC(CO)(CO)C(=O)N1CCc2c(cccc2Nc2ccc(Cl)c(-c3ncc(-c4ccccc4)[nH]3)c2)C1 [Compound 2]
9,0.1,Cc1ccc(Nc2cccc3c2CCN(S(C)(=O)=O)C3)cc1-c1nc2ccccc2[nH]1 [Compound 5]

# Same assay, conditions: Mus musculus, TMHh12, enzymatic and cellular assays for the inhibition of hedgehog signaling pathways; read-out: IC50 Ranges
row,IC50 [nM],Structure (SMILES)
1,1 to 10,Cc1ccc(Nc2cccc3c2CCN(S(C)(=O)=O)C3)cc1-c1ccc(N(C)C)nn1 [Compound 254]
2,1000 to 10000,Cc1ccc(Nc2cccc3c2CCN(S(C)(=O)=O)C3)cc1-c1ccc(C(C)(C)C)cc1 [Compound 113]
3,0.001 to 1,Cc1ccc(-c2cc(Nc3cccc4c3CCN(CCC(F)(F)F)C4)ccc2C)nc1 [Compound 251]
4,10 to 100,Cc1ncc(Nc2cccc3c2CCN(S(C)(=O)=O)C3)cc1-c1ccc(F)cn1 [Compound 202]
5,0.001 to 1,Cc1ccc(Nc2cccc3c2CCN(S(C)(=O)=O)C3)cc1-c1cc2ccccc2cn1 [Compound 229]
6,10 to 100,Cc1ccc(Nc2ncnc3c2CCN(CCS(C)(=O)=O)C3)cc1-c1cc2ccccc2cn1 [Compound 305]
7,0.001 to 1,Clc1ccc(Nc2cccc3c2CCN(C2CCOCC2)C3)cc1-c1ncc(-c2ccccc2)[nH]1 [Compound 29]
8,0.001 to 1,Cc1ccc(Nc2cccc3c2CCN(S(C)(=O)=O)C3)cc1-c1ccc(N(C)C)cn1 [Compound 291]
9,1 to 10,COc1ccc(-c2cc(Nc3cccc4c3CCN(C3CCS(=O)(=O)CC3)C4)ccc2C)nn1 [Compound 306]
10,0.001 to 1,O=C1CCC(N2CCc3c(cccc3Nc3ccc(Cl)c(-c4ncc(-c5ccccc5)[nH]4)c3)C2)CC1 [Compound 33]
11,100 to 1000,Cc1ccc(Nc2nccc3c2CCN(S(C)(=O)=O)C3)cc1-c1ccc(F)cn1 [Compound 244]
12,10 to 100,Cc1ccc(Nc2cccc3c2CCN(S(C)(=O)=O)C3)cc1-c1ccc(C(F)(F)F)cc1 [Compound 136]
13,1 to 10,Cc1ccc(-c2cc(Nc3cccc4c3CCN(CC(C)(C)C)C4)ccc2C)nc1 [Compound 213]
14,1 to 10,OC[C@@H](O)CN1CCc2c(cccc2Nc2ccc(Cl)c(-c3ncc(-c4ccccc4)[nH]3)c2)C1 [Compound 93]
15,0.001 to 1,C[S+]([O-])CC(=O)N1CCc2c(cccc2Nc2ccc(Cl)c(-c3ncc(-c4ccccc4)[nH]3)c2)C1 (stereo not shown) [Compound 19]
16,1 to 10,Cc1ccc(-c2cc(Nc3cccc4c3CCN(C[C@H](O)CO)C4)ccc2C)nc1 [Compound 210]
17,10 to 100,O=C(O)C(=O)N1CCc2c(cccc2Nc2ccc(Cl)c(-c3ncc(-c4ccccc4)[nH]3)c2)C1 [Compound 83]
18,1 to 10,Cc1ccc(Nc2cccc3c2CCN(CCS(C)(=O)=O)C3)cc1-c1ccccn1 [Compound 262]
19,100 to 1000,Cc1ccc(Nc2cccc3c2CCN(S(C)(=O)=O)C3)cc1-c1cnc(C#N)cn1 [Compound 208]
20,1 to 10,Cc1ccc(Nc2cccc3c2CCN(CCS(C)(=O)=O)C3)cc1-c1ccc(F)cn1 [Compound 232]
21,1 to 10,NS(=O)(=O)N1CCc2c(cccc2Nc2ccc(Cl)c(-c3ncc(-c4ccccc4)[nH]3)c2)C1 [Compound 13]
22,0.001 to 1,Cc1ccc(Nc2cccc3c2CCN(CCS(C)(=O)=O)C3)cc1-c1cc2ccccc2cn1 [Compound 315]
23,10 to 100,COc1ccc(-c2cc(Nc3cccc4c3CCN(S(C)(=O)=O)C4)ccc2C)cc1 [Compound 99]
24,100 to 1000,COc1cccc(-c2cc(Nc3cccc4c3CCN(S(C)(=O)=O)C4)ccc2C)n1 [Compound 165]

row,IC50 [nM],Structure (SMILES)
1,1 to 10,CCOc1cnc(-c2cc(Nc3cccc4c3CCN(C3CCS(=O)(=O)C3)C4)ccc2C)cn1 (stereo not shown) [Compound 308]
2,0.001 to 1,O=C([C@@H](O)CO)N1CCc2c(cccc2Nc2ccc(Cl)c(-c3nc(-c4ccccc4)c[nH]3)c2)C1 [Compound 27]
3,0.001 to 1,O=S(=O)(NCCO)N1CCc2c(cccc2Nc2ccc(Cl)c(-c3ncc(-c4ccccc4)[nH]3)c2)C1 [Compound 17]
4,1 to 10,Cc1ncc(Nc2cccc3c2CCN(S(C)(=O)=O)C3)cc1C(=O)Nc1ccccc1 [Compound 225]
5,10 to 100,Cc1cnc(-c2cc(Nc3cccc4c3CCN(C3CCS(=O)(=O)C3)C4)ccc2C)nc1 (stereo not shown) [Compound 267]
6,10 to 100,COc1cnc(-c2cc(Nc3cccc4c3CCN(S(C)(=O)=O)C4)ccc2C)nc1 [Compound 176]
7,0.001 to 1,COc1cccc(-c2cnc(-c3cc(Nc4cccc5c4CCN(S(C)(=O)=O)C5)ccc3C)[nH]2)n1 [Compound 104]
8,1 to 10,Cc1ccc(-c2cc(Nc3cccc4c3CCN(S(C)(=O)=O)C4)ccc2C)nn1 [Compound 170]
9,0.001 to 1,OC[C@H](O)CN1CCc2c(cccc2Nc2ccc(Cl)c(-c3ncc(-c4ccccc4)[nH]3)c2)C1 [Compound 18]
10,1 to 10,CC(C)(C)OC(=O)N1CCc2c(cccc2Nc2ccc(Cl)c(-c3ncc(-c4ccccc4)[nH]3)c2)C1 [Compound 45]
11,10 to 100,Clc1ccc(Nc2cccc3c2CCNC3)cc1-c1ncc(-c2ccccc2)[nH]1 [Compound 57]
12,1 to 10,CCS(=O)(=O)CCN1CCc2c(cccc2Nc2ccc(C)c(-c3ccc(F)cn3)c2)C1 [Compound 281]
13,0.001 to 1,Cc1ccnc(-c2cc(Nc3cccc4c3CCN(S(C)(=O)=O)C4)ccc2C)c1 [Compound 192]
14,100 to 1000,CS(=O)(=O)N1CCc2c(cccc2Nc2cc(-c3ccc(C#N)cc3)c(Cl)cn2)C1 [Compound 171]
15,0.001 to 1,Cc1ccc(Nc2cccc3c2CCN(C2CS(=O)(=O)C2)C3)cc1-c1cc2ccccc2cn1 [Compound 316]
16,1 to 10,Cc1ccc(-c2cnc(-c3cc(Nc4cccc5c4CCN(S(C)(=O)=O)C5)ccc3C)[nH]2)cn1 [Compound 91]
17,10 to 100,Cc1ccc(-c2cc(Nc3ncnc4c3CCN(C3CCS(=O)(=O)CC3)C4)ccc2C)nc1 [Compound 277]
18,1 to 10,Cc1ccc(Nc2cccc3c2CCN(CC(C)(C)O)C3)cc1C(=O)Nc1ccccc1 [Compound 222]
19,1 to 10,Cc1ccc(Nc2cccc3c2CCN(S(C)(=O)=O)C3)cc1-c1ncc(F)cn1 [Compound 220]
20,0.001 to 1,CC(CO)(CO)C(=O)N1CCc2c(cccc2Nc2ccc(Cl)c(-c3ncc(-c4ccccc4)[nH]3)c2)C1 [Compound 2]
21,1 to 10,Clc1ccc(Nc2cccc3c2CCN(c2nn[nH]n2)C3)cc1-c1ncc(-c2ccccc2)[nH]1 [Compound 87]
22,0.001 to 1,Cc1ccc(Nc2nccc3c2CCN(C2CCS(=O)(=O)CC2)C3)cc1-c1cc2ccccc2cn1 [Compound 344]
23,0.001 to 1,FC(F)(F)CN1CCc2c(cccc2Nc2ccc(Cl)c(-c3ncc(-c4ccccc4)[nH]3)c2)C1 [Compound 62]
24,1000 to 10000,Cc1ccc(Nc2cccc3c2CCN(S(C)(=O)=O)C3)cc1-c1ccc(CNCC(O)CO)cc1 (stereo not shown) [Compound 157]

row,IC50 [nM],Structure (SMILES)
1,0.001 to 1,O=C1c2cccc(Nc3ccc(Cl)c(-c4ncc(-c5ccccc5)[nH]4)c3)c2CCN1C1(CO)CC1 [Compound 88]
2,0.001 to 1,Cc1ccc(Nc2cccc3c2CCN(CC(F)(F)CO)C3)cc1-c1nc2ccccc2[nH]1 [Compound 85]
3,100 to 1000,COc1cncc(-c2cc(Nc3cccc4c3CCN(S(C)(=O)=O)C4)ccc2C)n1 [Compound 255]
4,1 to 10,CS(=O)(=O)N1CCc2c(cccc2Nc2ccc(Cl)c(-c3ccc(F)cn3)n2)C1 [Compound 303]
5,0.001 to 1,Cc1ccc(Nc2cccc3c2CCN(S(C)(=O)=O)C3)cc1-c1ccccn1 [Compound 189]
6,1 to 10,C[S+]([O-])CCCN1CCc2c(cccc2Nc2ccc(Cl)c(-c3ncc(-c4ccccc4)[nH]3)c2)C1 (stereo not shown) [Compound 47]
7,1 to 10,Cc1ccc(Nc2cccc3c2CCN(CCS(C)(=O)=O)C3)cc1-c1ncccc1F [Compound 260]
8,100 to 1000,Cc1ccc(-c2cc(Nc3cccc4c3CCN(C[C@H](O)CO)C4)ccc2C)nn1 [Compound 209]
9,0.001 to 1,Cc1ccc(Nc2cccc3c2CCN(S(C)(=O)=O)C3)cc1-c1ccc(Cl)cn1 [Compound 173]
10,0.001 to 1,CS(=O)(=O)N1CCc2c(ccnc2Nc2ccc(Cl)c(-c3ncc(-c4ccccc4)[nH]3)c2)C1 [Compound 133]
11,0.001 to 1,CC1(CN2CCc3c(cccc3Nc3ccc(Cl)c(-c4ncc(-c5ccccc5)[nH]4)c3)C2)CC1 [Compound 95]
12,10 to 100,Cc1ccc(Nc2cccc3c2CCN(CCS(C)(=O)=O)C3)nc1-c1ccccn1 [Compound 311]
13,1 to 10,Cc1ncc(Nc2cccc3c2CCN(S(C)(=O)=O)C3)cc1-c1nc2ccccc2[nH]1 [Compound 111]
14,1 to 10,Cc1ccc(Nc2cccc3c2CCN(S(C)(=O)=O)C3)cc1-c1ncc(-c2cnc(N(C)C)nc2)[nH]1 [Compound 107]
15,0.001 to 1,Cc1ccc(-c2cc(Nc3cccc4c3CCN(CC(C)(C)O)C4)ccc2C)nc1 [Compound 201]
16,1 to 10,COc1ccc(-c2nc(Nc3cccc4c3CCN(S(=O)(=O)C(C)C)C4)ccc2C)nn1 [Compound 319]
17,100 to 1000,Cc1cc(C#N)ccc1-c1cccc(Nc2cccc3c2CCN(S(C)(=O)=O)C3)c1 [Compound 168]
18,1 to 10,CC(C)(C(=O)O)N1CCc2c(cccc2Nc2ccc(Cl)c(-c3nc(-c4ccccc4)c[nH]3)c2)C1 [Compound 65]
19,100 to 1000,CC(=O)c1ccc(-c2cc(Nc3cccc4c3CCN(S(C)(=O)=O)C4)ccc2C)cc1 [Compound 114]
20,1 to 10,CCOc1ccc(-c2cc(Nc3cccc4c3CCN([C@@H]3CCS(=O)(=O)C3)C4)ccc2C)nn1 [Compound 339]
21,0.001 to 1,Cc1ccc(Nc2cccc3c2CCN(S(C)(=O)=O)C3)cc1-c1ncccc1F [Compound 227]
22,0.001 to 1,Cc1ccc(-c2cc(Nc3cccc4c3CCN(CC(C)(F)F)C4)ccc2C)nc1 [Compound 224]
23,1 to 10,COc1cnc(-c2cc(Nc3cccc4c3CCN(CCS(C)(=O)=O)C4)ccc2C)cn1 [Compound 264]
24,0.001 to 1,Cc1ccc(Nc2cccc3c2CCN(S(C)(=O)=O)C3)cc1-c1nc2ccccc2[nH]1 [Compound 5]

# Same assay, conditions: enzymatic and cellular assays for the inhibition of hedgehog signaling pathways; read-out: IC50 Ranges
row,IC50 [nM],Structure (SMILES)
1,0.001 to 1,Cc1ccc(Nc2cccc3c2CCN([C@@H]2CCS(=O)(=O)C2)C3)cc1-c1ncccc1F [Compound 341]
